Measurements reported in patent US8623892B2, “Metalloenzyme inhibitor compounds” (Viamet Pharmaceuticals, Inc., priority 2010, dated 2014).

Legend:
[1] = biological target: CYP2C9 (Homo sapiens (Human), UniProt P11712); experiment: Inhibition of liver cytochrome P450 enzymes (pooled human liver microsomes), CYP2C9; conditions: read-out: CYP2C9 IC50
Method: (§1) Solutions of each test compound were separately prepared at concentrations of 20000, 6000, 2000, 600, 200, and 60 μM by serial dilution with DMSO:MeCN (50:50 v/v). The individual test compound solutions were then diluted 20 fold with DMSO:MeCN:deionized water (5:5:180 v/v/v) to concentrations of 1000, 300, 100, 30, 10, and 3 μM. […] The percent of organic solvent attributable to the test compound or inhibitor mixture in the final reaction mixture was 2% v/v.
(§2) Pooled human liver microsome suspension (20 mg/mL) was diluted with phosphate buffer to obtain a 5 mg/mL suspension. A solution of NADPH was prepared in phosphate buffer at a concentration of 5 mM. Separate stock solutions of each substrate were prepared in DMSO:MeCN (50:50 v/v), mixed, and diluted in phosphate buffer to obtain a single solution containing each substrate at five times its experimentally determined Km concentration. […]
(§3) Substrate solution and microsome suspension were combined in a 1:1 volume ratio, mixed, and distributed to reaction wells of a PCR plate. […] A portion of the supernatant was analyzed by gradient reverse-phase HPLC with detection by electrospray ionization triple quadrupole mass spectrometry in the positive ion mode.
(§4) Data was fitted to sigmoid dose-response curves and the inhibitory potency of each test compound was determined as its IC50 value.

[2] = biological target: CYP2C19 (Homo sapiens (Human), UniProt P33261); experiment: Inhibition of liver cytochrome P450 enzymes (pooled human liver microsomes), CYP2C19; conditions: read-out: CYP2C19 IC50
Method: as §1, §2, §3, §4

[3] = biological target: CYP17 (Rattus norvegicus (Rat), UniProt P11715); experiment: Inhibition of CYP17 (pooled rat testicular microsomes); type: biochemical
Method: CYP17 activity was assayed according to the following procedure. […] The individual test compound and isozyme inhibitor solutions were then diluted 20-fold with deionized water (50:950 v/v) to concentrations of 135, 27, 4.5, 0.9, 0.15, 0.03 and 0.005 μM. […] For active controls, blank test compound diluent was added in place of test compound solution.

Chain of CYP17 (P11715 whole entry): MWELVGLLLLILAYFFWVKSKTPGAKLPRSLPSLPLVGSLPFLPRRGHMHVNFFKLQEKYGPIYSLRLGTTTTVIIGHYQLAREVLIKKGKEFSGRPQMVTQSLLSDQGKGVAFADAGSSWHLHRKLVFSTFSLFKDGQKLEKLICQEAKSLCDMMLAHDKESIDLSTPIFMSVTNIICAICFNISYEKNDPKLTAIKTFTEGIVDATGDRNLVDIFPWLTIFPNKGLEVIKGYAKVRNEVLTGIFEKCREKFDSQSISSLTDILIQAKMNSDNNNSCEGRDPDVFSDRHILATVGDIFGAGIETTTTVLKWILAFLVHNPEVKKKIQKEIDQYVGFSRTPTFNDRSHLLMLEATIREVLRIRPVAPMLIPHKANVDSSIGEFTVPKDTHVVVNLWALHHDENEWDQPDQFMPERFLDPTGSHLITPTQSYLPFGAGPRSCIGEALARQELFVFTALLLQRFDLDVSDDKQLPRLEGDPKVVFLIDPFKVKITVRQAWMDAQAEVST
Chain of CYP2C9 (P11712 whole entry): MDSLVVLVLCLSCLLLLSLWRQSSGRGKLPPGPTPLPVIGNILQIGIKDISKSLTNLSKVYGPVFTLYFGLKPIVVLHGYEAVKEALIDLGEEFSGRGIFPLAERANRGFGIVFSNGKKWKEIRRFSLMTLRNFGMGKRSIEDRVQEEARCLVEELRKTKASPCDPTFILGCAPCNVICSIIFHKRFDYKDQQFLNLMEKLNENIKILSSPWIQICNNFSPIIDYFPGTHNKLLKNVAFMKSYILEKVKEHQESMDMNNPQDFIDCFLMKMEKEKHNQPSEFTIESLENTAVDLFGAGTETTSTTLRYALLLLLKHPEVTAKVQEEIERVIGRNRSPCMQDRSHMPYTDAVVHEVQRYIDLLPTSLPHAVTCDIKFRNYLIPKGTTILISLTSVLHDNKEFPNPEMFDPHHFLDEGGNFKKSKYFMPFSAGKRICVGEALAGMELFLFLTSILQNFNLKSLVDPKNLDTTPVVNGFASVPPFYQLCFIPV
Chain of CYP2C19 (P33261 whole entry): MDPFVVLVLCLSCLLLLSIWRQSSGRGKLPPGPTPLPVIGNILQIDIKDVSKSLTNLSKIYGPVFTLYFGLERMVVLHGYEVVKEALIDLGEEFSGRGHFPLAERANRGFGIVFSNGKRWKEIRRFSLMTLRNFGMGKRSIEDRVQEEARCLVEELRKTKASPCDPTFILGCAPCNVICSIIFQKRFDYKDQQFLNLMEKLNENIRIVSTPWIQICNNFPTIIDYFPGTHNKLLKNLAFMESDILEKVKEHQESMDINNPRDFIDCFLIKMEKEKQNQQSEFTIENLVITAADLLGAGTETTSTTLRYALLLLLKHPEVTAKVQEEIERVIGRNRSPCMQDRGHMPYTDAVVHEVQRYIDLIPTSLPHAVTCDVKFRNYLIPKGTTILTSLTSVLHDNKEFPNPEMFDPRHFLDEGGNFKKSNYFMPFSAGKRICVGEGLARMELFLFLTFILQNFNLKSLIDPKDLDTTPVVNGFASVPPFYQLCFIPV

Q: With COc1cc2ccc(C(O)(c3c[nH]nn3)C(C)C)cc2cc1OC (centres unmarked) [Example 1, 1-(6,7-Dimethoxynaphthalen-2-yl)-2-methyl-1-(1H-1,2,3-triazol-4-yl)propan-1-ol] as the compound, how does the IC50 [1] read?
A: Its IC50 is 39 µM.

Q: What about the IC50 [2] of the same compound?
A: The IC50 was 33 µM.

Q: What about the IC50 [3] of the same compound?
A: Its IC50 is 0.18 µM.

Q: Which IC50 [3] does the source give for COc1cc2cnc(C(O)(c3c[nH]nn3)C(C)C)cc2cc1OC (centres unmarked) [Example 2, 1-(6,7-Dimethoxyisoquinolin-3-yl)-2-methyl-1-(1H-1,2,3-triazol-4-yl)propan-1-ol] here?
A: The IC50 was 0.96 µM.

Q: How did the IC50 [1] turn out when CC(C)C(O)(c1ccc2cc(OC(F)F)c(OC(F)F)cc2c1)c1c[nH]nn1 (centres unmarked) [Example 3, 1-(6,7-Bis(difluoromethoxy)naphthalen-2-yl)-2-methyl-1-(1H-1,2,3-triazol-4-yl)propan-1-ol] was run?
A: Its IC50 is 12 µM.

Q: And the IC50 [2]?
A: Its IC50 is 19 µM.

Q: CC(C)C(O)(c1ccc2cc(-c3cnco3)ccc2c1)c1c[nH]nn1 (centres unmarked) [Example 4, 2-Methyl-1-(6-(oxazol-5-yl)naphthalen-2-yl)-1-(1H-1,2,3-triazol-4-yl)propan-1-ol] was tested. Which IC50 [3] did it give?
A: Its IC50 is 0.51 µM.

Q: How did the IC50 [3] turn out when CC(=O)N1CCN(c2ccc(OCC3COC(Cn4ccnc4)(c4ccc(Cl)cc4Cl)O3)cc2)CC1 (centres unmarked) [Ketoconazole, reference compound] was run?
A: The IC50 was 0.4 µM.
